Biological target: T1, FGFR1 kinase (Homo sapiens, UniProt P11362)
T1 construct: purchased Upstate, USA
Assay: TR-FRET assay with FGFR1 kinase
Type: biochemical
Conditions: 13 μM ATP; for IC50: dose response, read-out: IC50 of FGFR1 inhibition; for inhibition at 1 µM: compound at 1000 nM
Method: 1. Inhibition of FGFR1 kinase
Compounds were screened in the TR-FRET assay with FGFR1 kinase. 5 ng of FGFR1 [Upstate, USA] kinase was used for assay. The compound was incubated with the kinase for 30 minutes at room temperature. After the incubation, substrate mix [40 nM Ultra light poly GT (Perkin Elmer, USA) and 13 μM ATP (Sigma)] was added. The above reaction was stopped by the addition of 40 mM EDTA after the 30 min kinase reaction. The Eu-labelled antiphospho-tyrosine antibody [Perkin Elmer, USA] was added at 0.5 nM and the fluorescence emission at 615 nm/665 nm [excitation at 340 nm] was measured. The compounds were initially screened at 100 nM and 1 μM concentrations. The compounds with >50% inhibition at 100 nM of FGFR1 were taken for the full dose response studies. The final DMSO concentration in the assay was 1%. For IC50 determination, ⅓^rd serial dilution was made from the 20 mM DMSO stock solution. 2 μl of these were transferred to the test wells containing […] of the reaction mixture [total reaction volume 20 μl]. The fluorescence was measured in Perkin Elmer Wallac 1420 Multilabel Counter Victor 3. The IC50 was determined by fitting the dose response data to sigmoidal curve fitting equation using GraphPad Prism software V5.

T1 sequence (P11362 22-822): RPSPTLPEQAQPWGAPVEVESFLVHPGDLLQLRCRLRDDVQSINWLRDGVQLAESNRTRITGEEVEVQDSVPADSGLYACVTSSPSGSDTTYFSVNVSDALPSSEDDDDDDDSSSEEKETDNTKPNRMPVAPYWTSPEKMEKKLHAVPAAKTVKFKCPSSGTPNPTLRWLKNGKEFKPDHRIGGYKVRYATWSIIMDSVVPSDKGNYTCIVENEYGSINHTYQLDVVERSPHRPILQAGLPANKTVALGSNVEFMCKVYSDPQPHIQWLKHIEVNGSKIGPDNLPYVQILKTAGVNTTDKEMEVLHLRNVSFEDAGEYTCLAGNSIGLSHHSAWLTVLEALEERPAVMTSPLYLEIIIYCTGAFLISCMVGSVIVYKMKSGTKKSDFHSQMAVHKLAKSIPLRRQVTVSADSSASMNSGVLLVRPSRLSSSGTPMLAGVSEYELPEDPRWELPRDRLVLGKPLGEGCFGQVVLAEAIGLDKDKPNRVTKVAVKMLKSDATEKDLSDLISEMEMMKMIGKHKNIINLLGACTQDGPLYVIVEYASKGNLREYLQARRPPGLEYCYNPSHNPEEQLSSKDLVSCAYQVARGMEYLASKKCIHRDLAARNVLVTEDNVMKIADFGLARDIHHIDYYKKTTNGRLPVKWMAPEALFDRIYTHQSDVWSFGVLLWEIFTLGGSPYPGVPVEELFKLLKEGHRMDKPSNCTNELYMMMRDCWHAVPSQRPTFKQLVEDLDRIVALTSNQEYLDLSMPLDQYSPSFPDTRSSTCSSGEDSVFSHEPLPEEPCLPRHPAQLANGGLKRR

SMILES | IC50 | inhibition at 1 µM
Cn1cc(-c2ccc3c(c2)ncn3-c2cc(-c3ccccc3Cl)cc(NS(=O)(=O)C3CC3)n2)cn1 [Example 28, N-(4-(2-chlorophenyl)-6-(5-(1-methyl-1H-pyrazol-4-yl)-1H-benzo[d]imidazol-1-yl)pyridin-2-yl)cyclopropanesulfonamide] | 7.2 nM | 97%
Cn1cc(-c2ccc3c(c2)ncn3-c2cc(-c3ccc(F)cn3)cc(NS(=O)(=O)C3CC3)n2)cn1 [Example 30, N-(5-fluoro-6′-(5-(1-methyl-1H-pyrazol-4-yl)-1H-benzo[d]imidazol-1-yl)-[2,4′-bipyridin]-2′-yl)cyclopropanesulfonamide] | 24 nM | 96%
O=S(=O)(Nc1cc(-c2ccc(F)cc2F)cc(-n2cnc3cc(-c4cnn(CCN5CCOCC5)c4)ccc32)n1)C1CC1 [Example 33, N-(4-(2,4-difluorophenyl)-6-(5-(1-(2-morpholinoethyl)-1H-pyrazol-4-yl)-1H-benzo[d]imidazol-1-yl)pyridin-2-yl)cyclopropanesulfonamide] | 2 nM | 99%
O=S(=O)(Nc1cc(-c2ccc(F)cc2F)cc(-n2cnc3cc(-c4cnn(C5CCNC5)c4)ccc32)n1)C1CC1 (stereo not shown) [Example 34, N-(4-(2,4-difluorophenyl)-6-(5-(1-(pyrrolidin-3-yl)-1H-pyrazol-4-yl)-1H-benzo[d]imidazol-1-yl)pyridin-2-yl)cyclopropanesulfonamide] | 1.6 nM | 99%
CCn1cc(-c2ccc3c(c2)ncn3-c2cc(-c3ccc(F)cc3F)cc(NS(=O)(=O)C3CC3)n2)nn1 [Example 35, N-(4-(2,4-difluorophenyl)-6-(5-(1-ethyl-1H-1,2,3-triazol-4-yl)-1H-benzo[d]-imidazol-1-yl)pyridin-2-yl)cyclopropanesulfonamide] | 2 nM | 99%
Cn1cc(-c2ccc3c(c2)ncn3-c2cc(-c3ccc(F)cc3F)cc(NS(=O)(=O)C3CC3)n2)nn1 [Example 36, N-(4-(2,4-difluorophenyl)-6-(5-(1-methyl-1H-1,2,3-triazol-4-yl)-1H-benzo[d]-imidazol-1-yl)pyridin-2-yl)cyclopropanesulfonamide] | 4.7 nM | 99%
CC(=O)Nc1nc(-c2ccc(F)cc2F)cc(-n2cnc3cc(-c4cnn(C)c4)ccc32)n1 [Example 38, N-(4-(2,4-difluorophenyl)-6-(5-(1-methyl-1H-pyrazol-4-yl)-1H-benzo[d]-imidazol-1-yl)pyrimidin-2-yl)acetamide] | 12 nM | 87%
Cn1cc(-c2ccc3c(c2)ncn3-c2cc(-c3ccc(F)cc3OC(F)F)cc(NS(=O)(=O)C3CC3)n2)cn1 [Example 40, N-(4-(2-(difluoromethoxy)-4-fluorophenyl)-6-(5-(1-methyl-1H-pyrazol-4-yl)-1H-benzo[d]imidazol-1-yl)pyridin-2-yl)cyclopropanesulfonamide] | 293 nM | 76%
Cn1cc(-c2ccc3c(c2)ncn3-c2cc(-c3ccc(F)cc3F)nc(NS(=O)(=O)C3CC3)n2)cn1 [Example 41, N-(4-(2,4-difluorophenyl)-6-(5-(1-methyl-1H-pyrazol-4-yl)-1H-benzo[d]-imidazol-1-yl)pyrimidin-2-yl)cyclopropanesulfonamide] | 32.7 nM | 93%

The remaining compounds from weak to strong by IC50, led by results:

IC50 | inhibition at 1 µM | SMILES
294 nM | 81% | CCOC(=O)c1cn(-c2ccc3c(c2)ncn3-c2cc(-c3ccc(F)cc3F)cc(NS(=O)(=O)C3CC3)n2)nn1 [Example 39, Ethyl 1-(1-(6-(cyclopropanesulfonamido)-4-(2,4-difluorophenyl)pyridin-2-yl)-1H-benzo[d]imidazol-5-yl)-1H-1,2,3-triazole-4-carboxylate]
43.4 nM | 94% | Cn1cc(-c2ccc3c(c2)ncn3-c2cc(NS(=O)(=O)C3CC3)nc(-c3ccc(F)cc3F)c2)cn1 [Example 43, N-(6-(2,4-difluorophenyl)-4-(5-(1-methyl-1H-pyrazol-4-yl)-1H-benzo[d]-imidazol-1-yl)pyridin-2-yl)cyclopropanesulfonamide]
21.7 nM | 99% | O=S(=O)(Nc1cc(-c2ccc(F)cc2F)cc(-n2cnc3cc(-n4ccnc4)ccc32)n1)C1CC1 [Example 32, N-(6-(5-(1H-imidazol-1-yl)-1H-benzo[d]imidazol-1-yl)-4-(2,4-difluorophenyl)-pyridin-2-yl)cyclopropanesulfonamide]
9.7 nM | 97% | Cn1cc(-c2ccc3c(c2)ncn3-c2cc(-c3ncccc3Cl)cc(NS(=O)(=O)C3CC3)n2)cn1 [Example 29, N-(3-chloro-6′-(5-(1-methyl-1H-pyrazol-4-yl)-1H-benzo[d]imidazol-1-yl)-[2,4′-bipyridin]-2′-yl)cyclopropanesulfonamide]
1.3 nM | 99% | Cn1cnc(-c2ccc3c(c2)ncn3-c2cc(-c3ccc(F)cc3F)cc(NS(=O)(=O)C3CC3)n2)c1 [Example 37, N-(4-(2,4-difluorophenyl)-6-(5-(1-methyl-1H-imidazol-4-yl)-1H-benzo[d]-imidazol-1-yl)pyridin-2-yl)cyclopropanesulfonamide]
